Reference: patent US20120220604A1, “PIPERAZINYL-ALKYL-BENZOIMIDAZOL-2-ONE DERIVATIVES AND THEIR USE AS MONOAMINE NEUROTRANSMITTER RE-UPTAKE INHIBITORS” (NeuroSearch A/S, priority 2009, published 2012)
pIC50: −log10 of the molar value. Where a name gives a salt, the structure may show the parent alone.

What was measured:
[1] = target: T1, reuptake of serotonine (5-HT) in synaptosomes (Rattus norvegicus, UniProt P31652); experiment: Inhibition of 5-HT reuptake in synaptosomes; format: biochemical; conditions: 3H-5-HT, read-out: 5-HT-uptake IC50
T1 construct: in synaptosomes as described in WO 97/16451 (NeuroSearch A/S); from tissue
T1 sequence (P31652 whole entry): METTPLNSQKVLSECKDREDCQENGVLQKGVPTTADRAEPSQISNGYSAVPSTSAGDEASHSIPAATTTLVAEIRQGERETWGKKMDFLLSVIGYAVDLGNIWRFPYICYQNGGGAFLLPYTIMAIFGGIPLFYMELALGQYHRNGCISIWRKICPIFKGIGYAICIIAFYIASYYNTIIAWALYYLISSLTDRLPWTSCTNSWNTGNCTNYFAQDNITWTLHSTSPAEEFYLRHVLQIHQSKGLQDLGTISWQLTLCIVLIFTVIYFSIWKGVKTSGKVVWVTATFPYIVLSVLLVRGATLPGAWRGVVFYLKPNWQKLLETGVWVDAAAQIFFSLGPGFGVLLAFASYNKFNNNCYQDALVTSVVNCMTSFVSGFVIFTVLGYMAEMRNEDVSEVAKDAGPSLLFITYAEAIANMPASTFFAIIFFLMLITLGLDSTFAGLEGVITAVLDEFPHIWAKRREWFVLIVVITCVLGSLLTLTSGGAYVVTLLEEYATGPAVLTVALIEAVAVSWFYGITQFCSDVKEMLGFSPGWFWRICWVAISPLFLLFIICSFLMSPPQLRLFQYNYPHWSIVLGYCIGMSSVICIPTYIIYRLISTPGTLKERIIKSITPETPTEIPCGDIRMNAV
Text: (§1) Compounds of the invention may be tested for their ability to inhibit reuptake of the monoamines dopamine, noradrenaline and serotonin in synaptosomes e.g. such as described in WO 97/30997 (NeuroSearch A/S) or WO 97/16451 (NeuroSearch A/S). Based on the balanced activity observed in these tests the compound of the invention is considered useful for the treatment, prevention or alleviation of a disease or a disorder or a condition of a mammal, including a human, which disease, disorder or condition is responsive to inhibition of monoamine neurotransmitter re-uptake in the central nervous system.
(§2) Compounds were tested for their ability to inhibit the reuptake of the monoamine neurotransmitters dopamine (DA) noradrenaline (NA) and serotonine (5-HT) in synaptosomes as described in WO 97/16451 (NeuroSearch A/S).
(§3) The test values are given as IC50 (the concentration (μM) of the test substance which inhibits the specific binding of ^3H-DA, ^3H-NA, or ^3H-5-HT by 50%).

[2] = target: T2, reuptake of dopamine (DA) in synaptosomes (Rattus norvegicus, UniProt P23977); experiment: Inhibition of dopamine reuptake in synaptosomes; format: biochemical; conditions: 3H-DA, read-out: DA-uptake IC50
T2 construct: in synaptosomes as described in WO 97/16451 (NeuroSearch A/S); from tissue
T2 sequence (P23977 whole entry): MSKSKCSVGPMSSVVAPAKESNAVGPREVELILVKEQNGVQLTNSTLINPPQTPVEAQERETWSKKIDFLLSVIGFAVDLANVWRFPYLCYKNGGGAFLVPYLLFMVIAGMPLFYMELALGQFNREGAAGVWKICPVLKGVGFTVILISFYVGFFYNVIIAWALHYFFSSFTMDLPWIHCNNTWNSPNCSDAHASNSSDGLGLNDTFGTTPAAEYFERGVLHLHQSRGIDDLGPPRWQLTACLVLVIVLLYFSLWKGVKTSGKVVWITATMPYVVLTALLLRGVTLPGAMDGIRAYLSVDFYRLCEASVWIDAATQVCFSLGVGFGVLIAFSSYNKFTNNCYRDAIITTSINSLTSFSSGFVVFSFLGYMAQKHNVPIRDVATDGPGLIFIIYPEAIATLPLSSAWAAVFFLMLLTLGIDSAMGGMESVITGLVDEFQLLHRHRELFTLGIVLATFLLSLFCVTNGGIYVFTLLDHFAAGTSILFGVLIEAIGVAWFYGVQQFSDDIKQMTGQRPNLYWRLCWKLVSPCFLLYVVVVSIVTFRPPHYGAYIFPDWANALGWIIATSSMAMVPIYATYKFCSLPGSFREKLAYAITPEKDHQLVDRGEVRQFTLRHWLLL
Text: as §1, §2, §3

[3] = target: T3, reuptake of noradrenaline (NA) in synaptosomes (Rattus norvegicus, UniProt Q63380); experiment: Inhibition of noradrenaline reuptake in synaptosomes; format: biochemical; conditions: 3H-NA, read-out: NA-uptake IC50
T3 construct: in synaptosomes as described in WO 97/16451 (NeuroSearch A/S); from tissue
T3 sequence (Q63380 1-617): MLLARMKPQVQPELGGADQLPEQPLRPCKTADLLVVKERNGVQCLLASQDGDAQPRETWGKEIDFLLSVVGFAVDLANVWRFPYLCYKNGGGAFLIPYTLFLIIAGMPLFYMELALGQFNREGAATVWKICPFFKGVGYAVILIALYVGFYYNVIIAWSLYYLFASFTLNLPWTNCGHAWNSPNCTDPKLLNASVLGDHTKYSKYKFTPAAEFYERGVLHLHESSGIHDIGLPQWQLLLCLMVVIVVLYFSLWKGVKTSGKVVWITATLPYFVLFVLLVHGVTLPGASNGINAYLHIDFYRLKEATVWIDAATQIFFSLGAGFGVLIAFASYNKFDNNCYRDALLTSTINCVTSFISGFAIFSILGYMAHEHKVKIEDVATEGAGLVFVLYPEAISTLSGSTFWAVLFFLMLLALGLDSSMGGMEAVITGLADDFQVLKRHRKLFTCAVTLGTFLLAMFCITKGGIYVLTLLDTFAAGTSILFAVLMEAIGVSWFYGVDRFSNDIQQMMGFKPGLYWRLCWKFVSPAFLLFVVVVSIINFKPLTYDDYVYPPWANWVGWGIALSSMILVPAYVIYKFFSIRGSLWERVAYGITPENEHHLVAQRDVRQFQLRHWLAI
Text: as §1, §2, §3

| SMILES | melting point [°C] | pIC50 [1] | pIC50 [2] | pIC50 [3] |
| --- | --- | --- | --- | --- |
| C=C(C)n1c(=O)n(CCN2CCN(c3ccc4c(ccn4C)c3)CC2)c2ccccc21 [Compound A1, 1-Isopropenyl-3-{2-[4-(1-methyl-1H-indol-5-yl)-piperazin-1-yl]-ethyl}-1,3-dihydro-benzoimidazol-2-one] | – | 7.85 | < 6.00 | 6.21 |
| Cn1ccc2cc(N3CCN(CCn4c(=O)n(C5=CCCCC5)c5ccccc54)CC3)ccc21 [Compound A2, 1-Cyclohex-1-enyl-3-{2-[4-(1-methyl-1H-indol-5-yl)-piperazin-1-yl]-ethyl}-1,3-dihydro-benzoimidazol-2-one] | – | 8.09 | 5.96 | 5.52 |
| Cn1ccc2ccc(N3CCN(CCn4c(=O)n(C5=CCCCC5)c5ccccc54)CC3)cc21 [Compound A3, 1-Cyclohex-1-enyl-3-{2-[4-(1-methyl-1H-indol-6-yl)-piperazin-1-yl]-ethyl}-1,3-dihydro-benzoimidazol-2-one] | – | 8.48 | 5.77 | 5.96 |
| C=C(C)n1c(=O)n(CCN2CCN(c3ccc4ccn(C)c4c3)CC2)c2ccccc21 [Compound A4, 1-Isopropenyl-3-{2-[4-(1-methyl-1H-indol-6-yl)-piperazin-1-yl]-ethyl}-1,3-dihydro-benzoimidazol-2-one] | – | 8.32 | 5.89 | 7.21 |

Next, values leading:

| melting point [°C] | pIC50 [1] | pIC50 [2] | pIC50 [3] | SMILES |
| --- | --- | --- | --- | --- |
| 92 to 94 | – | – | – | O=c1n(CCN2CCN(c3ccc4[nH]ccc4c3)CC2)c2ccccc2n1C1=CCCCC1 (as salt: fumaric acid salt) [Compound A7, 1-Cyclohex-1-enyl-3-{2-[4-(1H-indol-5-yl)-piperazin-1-yl]-ethyl}-1,3-dihydro-benzoimidazol-2-one] |
| 112 to 114 | – | – | – | C=C(C)n1c(=O)n(CCN2CCN(c3ccc4[nH]ccc4c3)CC2)c2ccccc21 (as salt: fumaric acid salt) [Compound A8, 1-{2-[4-(1H-Indol-5-yl)-piperazin-1-yl]-ethyl}-3-isopropenyl-1,3-dihydro-benzoimidazol-2-one] |
| 195 to 197 | 8.41 | 5.89 | 6.96 | C=C(C)n1c(=O)n(CCN2CCN(c3ccc4cc[nH]c4c3)CC2)c2ccccc21 [Compound A5] |
| 171 to 173 | 8.36 | 7.57 | 6.80 | O=c1n(CCN2CCN(c3ccc4cc[nH]c4c3)CC2)c2ccccc2n1C1=CCCCC1 [Compound A6, 1-Cyclohex-1-enyl-3-{2-[4-(1H-indol-6-yl)-piperazin-1-yl]-ethyl}-1,3-dihydro-benzoimidazol-2-one] |
| – | 6.72 | 5.64 | 5.92 | O=c1n(CCN2CCN(c3ccc4[nH]ccc4c3)CC2)c2ccccc2n1C1=CCCCC1 [Compound A7, 1-Cyclohex-1-enyl-3-{2-[4-(1H-indol-5-yl)-piperazin-1-yl]-ethyl}-1,3-dihydro-benzoimidazol-2-one] |
| – | 6.47 | < 6.00 | 6.54 | C=C(C)n1c(=O)n(CCN2CCN(c3ccc4[nH]ccc4c3)CC2)c2ccccc21 [Compound A8, 1-{2-[4-(1H-Indol-5-yl)-piperazin-1-yl]-ethyl}-3-isopropenyl-1,3-dihydro-benzoimidazol-2-one] |
